In patent US8383637B2, “2-amino-quinazoline derivatives useful as inhibitors of β-secretase (BACE)” (Jansssen Pharmaceutica N.V., priority 2004, dated 2013):
Where two headings read alike, the source gives them in different places.

Tests used:
β-secretase(BACE) [1] = biological target: T1, β-secretase(BACE) (Homo sapiens, UniProt P56817); test: BACE Assay-2 (FS1 substrate, IC50 and Ki); assay type: biochemical; conditions: procedure of Example 159, FS1 substrate; read-out: Ki μM (159)
T1 construct: purchased Panvera
T1 sequence (P56817 46-501): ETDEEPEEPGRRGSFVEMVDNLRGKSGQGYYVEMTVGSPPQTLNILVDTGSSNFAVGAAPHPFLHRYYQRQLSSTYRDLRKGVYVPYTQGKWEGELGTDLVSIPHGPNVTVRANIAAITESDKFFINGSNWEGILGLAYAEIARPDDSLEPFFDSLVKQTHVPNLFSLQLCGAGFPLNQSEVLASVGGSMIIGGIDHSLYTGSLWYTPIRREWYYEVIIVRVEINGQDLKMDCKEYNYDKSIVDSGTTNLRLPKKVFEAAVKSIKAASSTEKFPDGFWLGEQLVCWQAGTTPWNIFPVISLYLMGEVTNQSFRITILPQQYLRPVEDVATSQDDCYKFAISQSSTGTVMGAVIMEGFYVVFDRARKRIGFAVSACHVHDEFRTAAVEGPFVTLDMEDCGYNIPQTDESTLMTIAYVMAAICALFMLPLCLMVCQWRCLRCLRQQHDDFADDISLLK
Procedure: The FS1-substrate stock solution was prepared in DMSO as a 10 mg/mL solution. The FS1-substrate working solution was prepared by diluting the 10 mg/mL stock solution with substrate assay buffer to a final concentration of 300 μg/mL. The β-secretase (BACE) working solution was prepared by diluting a 0.83 mg/mL BACE stock solution with enzyme assay buffer to a final concentration of 4 μg/mL.
Test compounds were dissolved in DMSO at 10 mM.
The procedure for this assay was as follows: 15 μL of BACE working solution was pipetted into each well of a 96-well plate. To each well was then pipetted 2 μL of test compound at the selected concentration. Test compound and BACE were then mixed with a pipettor and incubated for 20 min at room temperature. To each well was then added 10 μL of the FS1 substrate working solution.
The procedure for the positive control was as follows: 15 μL of BACE working solution was pipetted into each well to be used as a positive control. To each well was then pipetted 2 μL of vehicle. Vehicle and BACE were then mixed with a pipettor and incubated for 20 min at room temperature. To each well was then added 10 μL of the FS1 substrate working solution.
For test compounds, measured at multiple concentrations, the measured T0 and T60 values were used to calculate an IC50 value using Graphpad Software (or PIR). For test compounds, Ki inhibition was determined as follows: For each compound concentration and positive control, rate of cleavage of substrate (Vi, where i=compound concentration in μM) was determined as Δ Fluorescence/Δ time (min). Cleavage rates (Vi) were plotted as a function of inhibitor concentration in μM [I]. The Ki was then determined by fitting the following equation to the graph of [I] vs Vi Y=aVmax/(50+24*(1+X/Ki)),

β-secretase(BACE) [2] = biological target: T1, β-secretase(BACE); test: BACE FS1% Inhibition Assay; assay type: biochemical; conditions: FS1 substrate; for inhibition at 1 µM: 1 μM test compound; for inhibition at 3 µM: 3 μM test compound
How it was run: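 Percent inhibition at each tested concentration, referenced to enzyme-free blank and vehicle-only positive control. Reaction: compound and BACE (4 μg/mL working stock) mixed 20 min at room temperature before FS1 substrate (300 μg/mL working stock), then 1 h at room temperature.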

[3] = 0.3 μM test compound, read-out: % Inhibition (FS) 0.3 μM
[4] = read-out: % Inhibition (FS) 1 μM
[5] = read-out: % Inhibition (FS) 3 μM
[6] = 0.3 μM test compound, read-out: % Inhibition (FS)

Row | SMILES | Ki (β-secretase(BACE) [1]) [µM] | inhibition at 0.3 µM (β-secretase(BACE) [2]; [3]) [%] | inhibition at 1 µM (β-secretase(BACE) [2]; [4]) [%] | inhibition at 3 µM (β-secretase(BACE) [2]; [5]) [%] | inhibition at 0.3 µM (β-secretase(BACE) [2]; [6]) [%] | inhibition at 1 µM (β-secretase(BACE) [2]; read-out: % Inhibition (FS)) [%] | inhibition at 3 µM (β-secretase(BACE) [2]; read-out: % Inhibition (FS)) [%] | % Inhibition (FS) 0.3 μM (β-secretase(BACE) [2]; 0.3 μM test compound, 0.3 µM) [%] | inhibition at 10 µM (β-secretase(BACE) [2]; 10 μM test compound, read-out: % Inhibition (FS) 10 μM) [%]
1 | NC1=Nc2ccc(-c3c(F)cccc3F)cc2CN1CCNC(=O)C1CCCCC1 [Compound 629] | 0.13 | < 30 | 72 | 102 | – | – | – | – | –
2 | CN(C(=O)CC[C@@H](C1CCCCC1)N1Cc2c(cccc2Oc2ccccc2)N=C1N)C1CCCCC1 [Compound 753] | 0.656 | – | – | – | 13 | 47 | 93 | – | –
3 | CN(CCN1Cc2cc(Oc3ccccc3)ccc2N=C1N)C(=O)C1CCCCC1 [Compound 426, Cyclohexanecarboxylic acid [2-(2-amino-6-phenoxy-4H-quinazolin-3-yl)-ethyl]-methyl-amide] | 0.53 | < 30 | 34 | 86 | – | – | – | – | –
4 | COC(=O)[C@H]1CC[C@@H](N(C)C(=O)CC[C@@H](C2CCCCC2)N2Cc3cc(Oc4ccccc4)ccc3N=C2N)CC1 [Compound 761] | 0.175 | – | – | – | 51 | 91 | 112 | – | –
5 | NC1=Nc2ccc(-c3ccccc3O)cc2CN1CCNC(=O)C1CCCCC1 [Compound 538] | 0.44 | < 30 | 53 | 100 | – | – | – | – | –
6 | CN(C(=O)c1cccc(CN2Cc3cc(-c4ccccc4OC(F)(F)F)ccc3N=C2N)c1)C1CCCCC1 [Compound 324] | 0.52 | < 30 | 55 | 87 | – | – | – | – | –
7 | COc1ccccc1C(=O)NCCN1Cc2cc(Oc3ccccc3)ccc2N=C1N [Compound 216] | 0.52 | < 30 | 45 | 91 | – | – | – | – | –
8 | CC(C)N(C(=O)c1cccc(CN2Cc3cc(Oc4ccccc4)ccc3N=C2N)c1)C1CCCCC1 [Compound 192] | 0.22 | 38 | 92 | 110 | – | – | – | – | –
9 | Cc1ccccc1Sc1ccc2c(c1)CN(Cc1cccc(C(=O)N(C)C3CCCCC3)c1)C(N)=N2 [Compound 404] | 0.78 | < 30 | 32 | 67 | – | – | – | – | –
10 | CN(C(=O)c1ccnc(CN2Cc3cc(Oc4ccccc4)ccc3N=C2N)c1)C1CCCCC1 [Compound 508, 2-(2-Amino-6-phenoxy-4H-quinazolin-3-ylmethyl)-N-cyclohexyl-N-methyl-isonicotinamide] | 0.15 | 31 | 74 | 113 | – | – | – | – | –
11 | Cc1cccc(Oc2ccc3c(c2)CN(Cc2cccc(C(=O)N(C)C4CCCCC4)c2)C(N)=N3)c1 [Compound 209] | 0.29 | < 30 | 58 | 103 | – | – | – | – | –
12 | Cc1ccccc1-c1ccc2c(c1)CN(Cc1cccc(C(=O)N(C)C3CCCCC3)c1)C(N)=N2 [Compound 261] | 0.42 | 51 | 87 | 110 | – | – | – | – | –
13 | NC1=Nc2ccc(-c3ccccc3)cc2CN1CCNC(=O)CC1CCCC1 [Compound 578] | 0.18 | < 30 | – | – | – | – | – | 31 | –
14 | CC(=O)Nc1ccccc1-c1ccc2c(c1)CN(Cc1cccc(C(=O)N(C)C3CCCCC3)c1)C(N)=N2 [Compound 328] | 0.33 | < 30 | 61 | 92 | – | – | – | – | –
15 | NC1=Nc2ccc(-c3cccc(Cl)c3)cc2CN1CCNC(=O)C1CCCCC1 [Compound 625] | 0.27 | < 30 | 54 | 95 | – | – | – | – | –
16 | CN(C(=O)CC[C@@H](C1CCC(=O)CC1)N1Cc2cc(Oc3ccccc3)ccc2N=C1N)C1CCCCC1 [Compound 732, (S)-enantiomer of 4-(2-Amino-6-phenoxy-4H-quinazolin-3-yl)-N-cyclohexyl-N-methyl-4-(4-oxo-cyclohexyl)-butyramide] | 0.01 | – | – | – | 135 | 135 | 133 | – | –
17 | COc1ccccc1-c1ccc2c(c1)CN(CCC(=O)NC1CCCCC1)C(N)=N2 [Compound 610] | 0.076 | 75 | 106 | 119 | – | – | – | – | –
18 | CCCCCC(CCC(=O)N(C)C1CCCCC1)N1Cc2cc(Oc3ccccc3)ccc2N=C1N (stereo not shown) [Compound 148] | 0.25 | 35 | 62 | 114 | – | – | – | – | –
19 | COC(=O)[C@@H](COCc1ccccc1)N(C)C(=O)CC[C@@H](C1CCOCC1)N1Cc2cc(Oc3ccccc3)ccc2N=C1N [Compound 783] | 0.301 | – | – | – | 109 | 110 | 121 | – | –
20 | CCCS(=O)(=O)NCCN1Cc2cc(Oc3ccccc3)ccc2N=C1N [Compound 134] | 0.37 | – | – | 70 | – | – | – | – | 104
21 | Cc1cccc(-c2ccc3c(c2)CN(Cc2cccc(C(=O)N(C)C4CCCCC4)c2)C(N)=N3)c1 [Compound 176] | 0.2 | 66 | 97 | 111 | – | – | – | – | –
22 | NC1=Nc2ccc(Oc3ccccc3)cc2CN1CCNC(=O)Nc1ccccc1 [Compound 205] | 0.32 | < 30 | 47 | 90 | – | – | – | – | –
23 | CCC(c1cccc(C(=O)N(C2CCCCC2)C2CCCCC2)c1)N1Cc2cc(-c3ccccc3OC)ccc2N=C1N (stereo not shown) [Compound 418] | 0.035 | 54 | 89 | 119 | – | – | – | – | –
24 | CC(C)[C@@H](CCC(=O)N(C)C1CCCCC1)N1Cc2cc(Oc3ccccc3)ccc2N=C1N [Compound 444] | 0.58 | < 30 | < 30 | 30 | – | – | – | – | –
25 | CN(C(=O)CC[C@@H](C1CCCCC1)N1Cc2cc(Oc3ccccc3)ccc2N=C1N)[C@H]1CC[C@@H](C(N)=O)CC1 [Compound 764, 4-{[4-(2-Amino-6-phenoxy-4H-quinazolin-3-yl)-4S-cyclohexyl-butyryl]-methyl-amino}-S,R-cyclohexanecarboxylic acid amide] | 0.061 | – | – | – | 87 | 110 | 116 | – | –
26 | NC1=Nc2ccc(-c3ccccc3Cl)cc2CN1CCNC(=O)C1CCCCC1 [Compound 536] | 0.086 | 61 | 83 | 118 | – | – | – | – | –
27 | CN(C(=O)CCC(C1CCC(O)CC1)N1Cc2cc(Oc3ccccc3)ccc2N=C1N)C1CCCCC1 (stereo not shown) [Compound 632, 4-(2-Amino-6-phenoxy-4H-quinazolin-3-yl)-N-cyclohexyl-4-(4-hydroxy-cyclohexyl)-N-methyl-butyramide] | 0.0084 | 115 | 118 | 117 | – | – | – | – | –
